Results as given in ChEMBL document CHEMBL1130509 (Bioorg Med Chem Lett, 1997).
Blank lines part the entries; values can stand above or below the compound they belong to.

Assays:
[1] = target: 5-hydroxytryptamine receptor 4 (Rattus norvegicus, UniProt Q62758); experiment: Agonist activity against serotonin 5-HT4 receptor in rat tunica muscularis mucosae assay; type: functional
D(1A) dopamine receptor = D(1A) dopamine receptor (Homo sapiens, UniProt P21728); experiment: Compound was tested for inhibitory activity against Dopamine D1 receptor
D(1A) dopamine receptor, sequence (P21728 whole entry): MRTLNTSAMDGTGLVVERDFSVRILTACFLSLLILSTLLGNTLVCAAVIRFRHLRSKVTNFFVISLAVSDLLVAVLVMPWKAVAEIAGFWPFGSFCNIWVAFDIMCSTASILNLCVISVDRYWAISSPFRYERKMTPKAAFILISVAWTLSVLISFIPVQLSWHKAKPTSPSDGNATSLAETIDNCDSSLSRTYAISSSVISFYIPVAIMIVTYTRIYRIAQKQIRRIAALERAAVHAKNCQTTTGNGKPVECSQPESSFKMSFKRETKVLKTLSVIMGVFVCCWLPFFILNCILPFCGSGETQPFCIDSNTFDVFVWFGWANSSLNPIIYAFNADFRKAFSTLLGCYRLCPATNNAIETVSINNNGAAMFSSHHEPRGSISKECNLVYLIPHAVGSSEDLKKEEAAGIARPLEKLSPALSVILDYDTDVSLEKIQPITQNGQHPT

Substance-P receptor = Substance-P receptor (Homo sapiens, UniProt P25103); experiment: Compound was tested for inhibitory activity against Tachykinin receptor 1
Substance-P receptor, sequence (P25103 whole entry): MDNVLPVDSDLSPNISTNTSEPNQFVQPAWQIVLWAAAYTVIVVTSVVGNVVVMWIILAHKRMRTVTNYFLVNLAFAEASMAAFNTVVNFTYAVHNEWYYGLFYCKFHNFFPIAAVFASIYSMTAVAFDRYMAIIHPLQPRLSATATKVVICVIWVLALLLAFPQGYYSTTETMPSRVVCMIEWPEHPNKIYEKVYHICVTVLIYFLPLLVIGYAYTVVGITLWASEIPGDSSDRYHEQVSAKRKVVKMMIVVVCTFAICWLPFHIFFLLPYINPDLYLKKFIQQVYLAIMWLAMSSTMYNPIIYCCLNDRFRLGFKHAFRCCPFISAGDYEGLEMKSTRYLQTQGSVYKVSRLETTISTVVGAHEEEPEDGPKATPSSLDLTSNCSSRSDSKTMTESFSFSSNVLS

[2] = target: T1, 5-hydroxytryptamine receptor 3A (Homo sapiens, UniProt P46098); experiment: (§1) Compound was tested for its binding affinity for the 5-hydroxytryptamine 3 receptor
T1 sequence (P46098 whole entry): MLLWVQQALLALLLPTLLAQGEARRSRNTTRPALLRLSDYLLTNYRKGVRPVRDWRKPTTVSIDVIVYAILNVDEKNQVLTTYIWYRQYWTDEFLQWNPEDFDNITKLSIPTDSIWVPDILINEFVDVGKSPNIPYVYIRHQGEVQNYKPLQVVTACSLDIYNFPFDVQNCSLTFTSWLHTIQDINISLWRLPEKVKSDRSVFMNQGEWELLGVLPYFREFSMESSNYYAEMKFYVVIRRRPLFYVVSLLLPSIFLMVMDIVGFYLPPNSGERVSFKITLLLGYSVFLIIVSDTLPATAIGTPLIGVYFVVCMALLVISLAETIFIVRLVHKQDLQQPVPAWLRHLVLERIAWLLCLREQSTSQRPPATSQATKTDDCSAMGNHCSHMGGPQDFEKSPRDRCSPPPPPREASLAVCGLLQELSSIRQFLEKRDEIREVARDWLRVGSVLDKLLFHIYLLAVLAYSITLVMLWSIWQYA

[3] = Compound was tested for inhibitory activity against 5-hydroxytryptamine 1 receptor
D(2) dopamine receptor [4] = target: T2, D(2) dopamine receptor (Homo sapiens, UniProt P14416); experiment: Compound was tested for inhibitory activity against Dopamine D2 receptor
T2 sequence (P14416 whole entry): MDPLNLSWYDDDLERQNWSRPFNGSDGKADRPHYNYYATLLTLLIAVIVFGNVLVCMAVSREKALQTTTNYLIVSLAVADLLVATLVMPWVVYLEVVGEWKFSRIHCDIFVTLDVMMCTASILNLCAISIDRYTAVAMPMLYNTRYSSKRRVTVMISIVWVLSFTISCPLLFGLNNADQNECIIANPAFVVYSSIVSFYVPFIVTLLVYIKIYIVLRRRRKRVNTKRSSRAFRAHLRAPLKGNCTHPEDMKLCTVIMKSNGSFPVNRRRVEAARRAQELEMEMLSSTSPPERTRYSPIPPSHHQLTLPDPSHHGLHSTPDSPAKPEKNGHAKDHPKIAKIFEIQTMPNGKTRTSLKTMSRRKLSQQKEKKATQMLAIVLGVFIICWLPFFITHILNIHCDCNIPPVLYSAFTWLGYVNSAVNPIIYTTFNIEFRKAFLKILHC

Adrenergic receptor beta = Adrenergic receptor beta (Homo sapiens, UniProt P08588+P07550+P13945); experiment: Compound was tested for inhibitory activity against Beta adrenergic receptor; type: protein assay
[5] = target: T3, Alpha-2A adrenergic receptor (Rattus norvegicus, UniProt P22909); experiment: Compound was tested for inhibitory activity against adrenergic alpha-2 receptor
T3 sequence (P22909 whole entry): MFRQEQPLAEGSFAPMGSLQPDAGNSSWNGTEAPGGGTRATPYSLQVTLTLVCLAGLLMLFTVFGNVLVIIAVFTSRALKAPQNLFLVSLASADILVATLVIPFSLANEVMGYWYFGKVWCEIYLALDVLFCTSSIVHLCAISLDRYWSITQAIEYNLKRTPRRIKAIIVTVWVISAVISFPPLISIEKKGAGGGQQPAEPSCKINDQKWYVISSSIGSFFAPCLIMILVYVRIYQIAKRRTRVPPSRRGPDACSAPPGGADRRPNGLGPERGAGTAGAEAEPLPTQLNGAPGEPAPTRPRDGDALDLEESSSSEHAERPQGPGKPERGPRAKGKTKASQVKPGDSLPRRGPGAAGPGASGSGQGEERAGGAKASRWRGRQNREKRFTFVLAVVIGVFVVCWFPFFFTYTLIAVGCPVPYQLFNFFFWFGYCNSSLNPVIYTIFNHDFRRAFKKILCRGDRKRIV

[6] = target: Muscarinic acetylcholine receptor M3 (Rattus norvegicus, UniProt P08483); experiment: Compound was tested for inhibitory activity against Muscarinic acetylcholine receptor
Muscarinic acetylcholine receptor M3, sequence (P08483 whole entry): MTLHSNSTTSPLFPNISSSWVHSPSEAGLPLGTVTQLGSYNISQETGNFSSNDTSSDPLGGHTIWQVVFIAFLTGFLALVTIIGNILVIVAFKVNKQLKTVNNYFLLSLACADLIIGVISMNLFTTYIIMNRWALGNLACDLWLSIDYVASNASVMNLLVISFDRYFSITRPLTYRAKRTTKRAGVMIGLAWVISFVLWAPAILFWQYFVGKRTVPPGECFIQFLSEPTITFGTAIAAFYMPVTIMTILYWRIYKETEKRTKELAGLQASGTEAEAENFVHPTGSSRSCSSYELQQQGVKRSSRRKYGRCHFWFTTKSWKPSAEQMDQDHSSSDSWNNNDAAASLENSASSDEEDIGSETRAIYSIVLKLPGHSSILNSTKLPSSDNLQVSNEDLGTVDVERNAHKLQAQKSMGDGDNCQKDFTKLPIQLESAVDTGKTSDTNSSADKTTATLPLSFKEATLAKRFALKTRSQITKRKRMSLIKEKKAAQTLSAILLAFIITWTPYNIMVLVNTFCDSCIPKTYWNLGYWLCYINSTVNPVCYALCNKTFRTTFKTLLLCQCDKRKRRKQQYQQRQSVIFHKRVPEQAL

[7] = target: T4, Alpha-1B adrenergic receptor (Homo sapiens, UniProt P35368); experiment: Compound was tested for inhibitory activity against adrenergic alpha-1 receptor
T4 sequence (P35368 whole entry): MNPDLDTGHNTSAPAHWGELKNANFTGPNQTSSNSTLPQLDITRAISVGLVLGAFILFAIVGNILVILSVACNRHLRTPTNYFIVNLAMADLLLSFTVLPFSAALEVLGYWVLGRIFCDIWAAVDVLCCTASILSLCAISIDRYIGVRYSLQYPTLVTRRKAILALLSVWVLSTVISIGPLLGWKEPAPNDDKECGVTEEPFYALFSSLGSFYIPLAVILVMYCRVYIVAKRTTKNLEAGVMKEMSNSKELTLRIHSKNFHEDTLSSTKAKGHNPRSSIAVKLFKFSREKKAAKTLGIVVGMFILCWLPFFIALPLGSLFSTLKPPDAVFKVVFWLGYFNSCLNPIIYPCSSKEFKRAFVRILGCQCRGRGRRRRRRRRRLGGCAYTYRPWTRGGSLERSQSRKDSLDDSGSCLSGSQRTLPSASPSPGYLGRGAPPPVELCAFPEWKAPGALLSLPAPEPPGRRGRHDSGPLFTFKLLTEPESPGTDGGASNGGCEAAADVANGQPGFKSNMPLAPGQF

[8] = target: Serotonin 2 (5-HT2) receptor (Homo sapiens, UniProt P41595+P28223+P28335); experiment: Compound was tested for inhibitory activity against 5-hydroxytryptamine 2 receptor; type: protein assay
Mus musculus = experiment: Compound was tested for inhibition of serotonin 5-HT3 receptor mediated bradycardia in Bezold-Jarisch reflex model in mice at 1 mg/kg after intraperitoneal administration; type: functional; details: ip
D(2) dopamine receptor [9] = target: T2, D(2) dopamine receptor; experiment: Compound was selective with respect to binding at the Dopamine receptor D2
[10] = target: T5, Serotonin 3 (5-HT3) receptor (Rattus norvegicus, UniProt P35563+Q9JJ16); experiment: as §1; type: protein-complex assay
T5 sequence (P35563 whole entry): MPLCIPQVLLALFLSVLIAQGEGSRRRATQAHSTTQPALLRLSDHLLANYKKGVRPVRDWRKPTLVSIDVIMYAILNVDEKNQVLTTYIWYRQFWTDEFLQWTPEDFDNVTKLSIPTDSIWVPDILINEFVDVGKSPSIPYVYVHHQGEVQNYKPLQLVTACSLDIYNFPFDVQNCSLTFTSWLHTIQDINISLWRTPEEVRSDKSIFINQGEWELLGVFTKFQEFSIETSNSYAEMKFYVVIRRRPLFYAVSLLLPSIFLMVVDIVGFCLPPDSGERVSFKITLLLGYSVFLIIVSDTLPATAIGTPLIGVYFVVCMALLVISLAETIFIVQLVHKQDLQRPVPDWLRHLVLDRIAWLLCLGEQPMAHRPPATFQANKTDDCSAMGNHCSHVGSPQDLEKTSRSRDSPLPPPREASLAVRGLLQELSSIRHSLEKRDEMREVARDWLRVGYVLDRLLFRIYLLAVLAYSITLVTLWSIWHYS
T5 sequence (Q9JJ16 whole entry): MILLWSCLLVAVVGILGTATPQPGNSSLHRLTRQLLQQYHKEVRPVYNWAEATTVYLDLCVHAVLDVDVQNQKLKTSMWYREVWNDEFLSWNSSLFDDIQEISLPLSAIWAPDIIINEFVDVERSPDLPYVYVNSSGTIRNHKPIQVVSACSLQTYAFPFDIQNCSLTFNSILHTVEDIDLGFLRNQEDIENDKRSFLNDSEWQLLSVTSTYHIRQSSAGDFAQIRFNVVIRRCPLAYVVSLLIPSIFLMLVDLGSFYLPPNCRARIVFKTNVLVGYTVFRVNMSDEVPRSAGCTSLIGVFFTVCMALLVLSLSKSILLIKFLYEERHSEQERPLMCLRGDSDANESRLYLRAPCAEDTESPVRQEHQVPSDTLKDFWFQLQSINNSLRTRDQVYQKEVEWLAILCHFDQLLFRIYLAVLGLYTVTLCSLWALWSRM

5-hydroxytryptamine receptor 4, sequence (Q62758 whole entry): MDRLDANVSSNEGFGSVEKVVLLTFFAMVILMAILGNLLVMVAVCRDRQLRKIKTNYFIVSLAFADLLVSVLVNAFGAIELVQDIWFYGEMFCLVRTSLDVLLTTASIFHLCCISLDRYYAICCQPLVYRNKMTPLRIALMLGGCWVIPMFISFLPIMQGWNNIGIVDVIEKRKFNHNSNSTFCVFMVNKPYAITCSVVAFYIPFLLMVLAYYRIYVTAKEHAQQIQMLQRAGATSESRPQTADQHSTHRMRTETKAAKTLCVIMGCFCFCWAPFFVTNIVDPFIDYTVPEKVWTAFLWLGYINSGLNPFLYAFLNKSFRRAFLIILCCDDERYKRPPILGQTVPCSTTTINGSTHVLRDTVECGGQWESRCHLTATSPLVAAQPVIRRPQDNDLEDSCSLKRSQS

EC50 [1]: > 10000 nM
Structure (SMILES): COc1cc(NC(C)=O)c(Cl)cc1C(=O)NC1C2CC3CC1CN3C2 (configuration not stated)

IC50 (D(1A) dopamine receptor): > 10 µM
EC50 [1]: 51 nM
IC50 (Substance-P receptor): > 10 µM
Ki [2]: 1.2 nM
IC50 [3]: > 10 µM
IC50 (D(2) dopamine receptor [4]): > 10 µM
IC50 (Adrenergic receptor beta): > 10 µM
IC50 [5]: > 10 µM
IC50 [6]: > 10 µM
IC50 [7]: > 10 µM
IC50 [8]: > 10 µM
Structure (SMILES): COc1cc(N)c(Cl)cc1C(=O)NC1C2CC3CN(C2)CC31.Cl (configuration not stated)

EC50 [1]: 1660 nM
Structure (SMILES): COc1cc(N)c(Cl)cc1C(=O)NCCC12CC3CN(CC3C1)C2

IC50 (D(2) dopamine receptor [9]): > 10 µM
Ki [10]: 5 nM
Structure (SMILES): COc1cc(N)c(Cl)cc1C(=O)NCC12CC3CN(CC3C1)C2
inhibition in vivo at 1 mg/kg (Mus musculus): 70%

EC50 [1]: > 10000 nM
Structure (SMILES): COc1cc(NC(C)=O)c(Cl)cc1C(=O)NCC1C2CC3CC1CN3C2 (configuration not stated)
